Tests used:
S. aureus MRSA 1094 = experiment: Antibacterial activity (MIC, broth dilution); assay type: cell-based; settings: CLSI
Description: (§1) Determination of the Minimal Inhibitory Concentrations (MIC) by dilution was carried out by broth dilution according to CLSI standards.

[1] = system: K. pneumoniae NR-15410 (KPC); experiment: Antibacterial activity (MIC, broth dilution); assay type: cell-based; settings: CLSI
Description: as §1

E. cloacae ATCC 13047 = experiment: Antibacterial activity (MIC, broth dilution); assay type: cell-based; settings: CLSI
Description: as §1

E. faecium F118 (VRE) = experiment: Antibacterial activity (MIC, broth dilution); assay type: cell-based; settings: CLSI, in µg/mL
Description: as §1

[2] = system: K. pneumoniae NR-15411 (KPC); experiment: Antibacterial activity (MIC, broth dilution); assay type: cell-based; settings: CLSI
Description: as §1

[3] = system: S. aureus HFH-30123 (MRSA); experiment: Antibacterial activity (MIC, broth dilution); assay type: cell-based; settings: CLSI
Description: as §1

E. faecium EF1509 (VRE) = experiment: Antibacterial activity (MIC, broth dilution); assay type: cell-based; settings: CLSI, in µg/mL
Description: as §1

E. aerogenes ATCC 13048 = experiment: Antibacterial activity (MIC, broth dilution); assay type: cell-based; settings: CLSI
Description: as §1

P. aeruginosa PA01 = experiment: Antibacterial activity (MIC, broth dilution); assay type: cell-based; settings: CLSI
Description: as §1

P. aeruginosa X13273 = experiment: Antibacterial activity (MIC, broth dilution); assay type: cell-based; settings: CLSI, in µg/mL
Description: as §1

P. aeruginosa ATCC 27853 = experiment: Antibacterial activity (MIC, broth dilution); assay type: cell-based; settings: CLSI
Description: as §1

HeLa cells = experiment: Cytotoxicity against mammalian cells (MTS assay); assay type: cell-based
Summary of the method: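 HeLa cells exposed 72 h in RPMI1640 to compounds at 64 to 0.125 μg/ml, in triplicate. Viability measured as mitochondrial activity by MTS, and CC50 taken against a standard curve of serially diluted untreated cells.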

A. baumanii ATCC 19606 = experiment: Antibacterial activity (MIC, broth dilution); assay type: cell-based, Acinetobacter baumanii; settings: CLSI, in µg/mL
Summary of the method: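 MIC determined by broth dilution following CLSI standards, using A. baumanii ATCC 19606.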

[4] = Lipid II binding by Surface Plasmon Resonance; settings: SPR, immobilized 3-Lipid II, 25°C
Summary of the method: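 Farnesyl (3-isoprene) Lipid II amine-coupled (50 RUs) on CM5 chips. Compounds injected at 10 μM, 30 μl/min, 25°C, in 10 mM HEPES, 150 mM NaCl, 0.05% P20, pH 7.4 (± 3 mM EDTA), 10% DMSO. Signals corrected against control flow-cell; kinetics fitted from binding isotherms.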

[5] = system: E. faecalis (n=5) clinical isolates; experiment: Activity against Enterococcus spp. (MIC); assay type: cell-based; settings: clinical isolates sensitive to linezolid and daptomycin
Description: as §1

[6] = system: Enterococcus faecalis EF1509; experiment: Murine peritoneal sepsis model; assay type: in vivo, C57BL/6J mice; settings: 6jc48-1 100 mg/kg, ampicillin 300 mg/kg
From the text: Care of the mice met or exceeded the standards set forth by the National Institute of Health Guide for the care and use of laboratory animals and the AVMA panel on Euthanasia. All procedures in this study have been approved by the Institutional Animal Care and Use Committee (IACUC) at the University of Maryland Baltimore School of Medicine (Protocol number 02122005). Adult C57BL/6J mice (~18 grams, 8–10 weeks old) were used for all experiments. Mice were obtained from the Jackson Laboratory (Bar Harbor, Maine, USA) and housed in the IHV SPC animal core facility. Mice were fed standard chow (Harlan Laboratories) and water ad libitum. […] Infected animals (n = 5) were subsequently treated by intraperitoneal injection 30 min post-infection with 100 mg/kg of compound in 300 μL sterile saline solution, 5% Tween 80, 10% DMSO (V/V), ampicillin (300mg/kg), or vehicle (sterile saline solution, 5% Tween 80, 10% DMSO (V/V)) as positive and negative controls, respectively. Animals were closely observed during a period of 24 h and mice that show signs of severe sepsis were humanely euthanized. Mice were anesthetized by intraperitoneal injection of ketamine (80-100mg/kg) and xylazine (10–15 mg/kg). Once sedated, blood was collected by cardiac puncture. Immediately after blood collection the mice were euthanized by cervical dislocation. Spleens were harvested aseptically, weighed and homogenized in 500 μl of sterile saline solution using an IKA T10 basic disperser (IKA, Wilmington NC). Spleen homogenates were serially diluted and plated onto BHI agar plates. Bacterial counts were determined following 24 h incubation at 37°C and expressed as CFU per gram for spleen.
We established a murine model for sepsis to evaluate the efficacy of 6jc48-1 as an antibiotic agent in vivo. […] Based on the data obtained in the pharmacokinetic analysis, mice (n = 5) were inoculated intraperitoneally with E. faecalis EF1509 (~5 x 10^8 CFU/ animal) and treated after 30 min with compound 6jc48-1 (100 mg/kg IP), ampicillin (300 mg/kg IP) or vehicle. Animals were monitored for survival and after 24 h spleen samples were collected and analyzed for the presence of bacteria. Bacterial counts were determined by plating serial dilutions on BHI agar plates and compared to control treatment with ampicillin as measures of efficacy (Fig 5).

[7] = Liver microsome stability; assay type: in vitro ADME; settings: human, human liver microsomes, pH 7.4
Description: The in vitro microsome stability assay was performed using human liver microsomes and a Biomek FXP liquid handling workstation to deliver reagents to a 96 deep well plate on a shaking peltier with temperature controls. Human liver microsomes were purchased from Corning®. The test compound was incubated in an aqueous reaction mixture (200 ul total volume) consisting of human liver microsomes (150 mixed donor pool) and NADPH Regenerating System Solutions A and B (Corning®) in the presence of 100 mM potassium phosphate buffer (pH 7.4). The NADPH solution A comprises nicotinamide adenine dinucleotide phosphate (NADP+) and glucose 6-phosphate and solution B contains glucose-6-phosphate dehydrogenase. Solutions A and B were combined prior to adding to the reaction plate to generate a supply of NADPH. The NADPH was added last to simultaneously initiate the reactions. The final concentration of the test compound was 10 uM and the microsomal protein concentration was 0.5 mg/ml. After incubation at 37°C, the reaction was terminated at 0, 5, 10, 20, 30, 40, 50 and 60 minutes, respectively, by the addition of 600 uL of acetonitrile. Three replicates were run for each time point. The quenched reaction plate was centrifuged at 4500 rpm for 10 minutes. The supernatant was diluted 1:2 in 30% Methanol in water for LC/MS/MS analyses to monitor substrate depletion. Water was substituted for NADPH for the zero time-point samples. A control plate, without NADPH cofactor, was completed on the same day, using the same conditions.
The half-life (t1/2) was obtained using the equation below: t1/2=−0.693/slope
Where slope is the slope of the line formed by ln(% remaining test compound) vs. time. The in vitro intrinsic clearance (CLint) value was calculated using equation: CLint=(0.693/t1/2)(incubation volume(ul)/total microsomal protein(mg))

| Compound | Antibacterial activity (MIC) S. aureus MRSA 1094 (S. aureus MRSA 1094) [µg/mL] | Antibacterial activity (MIC) K. pneumoniae NR-15410 (KPC) [1] [µg/mL] | Antibacterial activity (MIC) E. cloacae ATCC 13047 (E. cloacae ATCC 13047) [µg/mL] | Antibacterial activity (MIC) E. faecium F118 (VRE) (E. faecium F118 (VRE)) | Antibacterial activity (MIC) K. pneumoniae NR-15411 (KPC) [2] [µg/mL] | Antibacterial activity (MIC) S. aureus HFH-30123 (MRSA) [3] [µg/mL] | Antibacterial activity (MIC) E. faecium EF1509 (VRE) (E. faecium EF1509 (VRE)) | Antibacterial activity (MIC) E. aerogenes ATCC 13048 (E. aerogenes ATCC 13048) [µg/mL] | Antibacterial activity (MIC) P. aeruginosa PA01 (P. aeruginosa PA01) [µg/mL] | Antibacterial activity (MIC) P. aeruginosa X13273 (P. aeruginosa X13273) | Antibacterial activity (MIC) P. aeruginosa ATCC 27853 (P. aeruginosa ATCC 27853) [µg/mL] | CC50% (72 h HeLa cells) (HeLa cells) | Antibacterial activity (MIC) A. baumanii ATCC 19606 (A. baumanii ATCC 19606) | Kd [4] [µM] | Activity (MIC) E. faecalis (n=5) clinical isolates [5] | Bacterial counts in spleen ([6]; IP treatment 30 min post-infection, spleen collected after 24 h) | Survival of infected animals ([6]; n = 5, IP treatment 30 min post-infection, length of the experiment (24 h)) | microsomal CLint at 10 uM ([7]; read-out: Liver microsome intrinsic clearance (positive control)) [µL/min/mg] | half-life at 10 uM ([7]; read-out: Liver microsome t1/2 (positive control)) [min] |
| --- | --- | --- | --- | --- | --- | --- | --- | --- | --- | --- | --- | --- | --- | --- | --- | --- | --- | --- | --- |
| Clc1ccc(-c2cc(/C=C/c3cc4c5c(c3)CCCN5CCC4)[o+]c(-c3ccc(Cl)cc3)c2)cc1.F[B-](F)(F)F [6jc-69-4] | 8 | ≥ 64 | ≥ 64 | 5.66 | ≥ 64 | 8 | 4 | ≥ 64 | ≥ 64 | >=64 | ≥ 64 | 3.09 | >=64 | 30.3 ± 0.5 | – | – | – | – | – |
| Brc1ccc(-c2cc(/C=C/c3cc4c5c(c3)CCCN5CCC4)[o+]c(-c3ccc(Br)cc3)c2)cc1.F[B-](F)(F)F [6jc-69-5] | ≥ 64 | ≥ 64 | ≥ 64 | 11.31 | ≥ 64 | 64 | 6 | ≥ 64 | ≥ 64 | >=64 | ≥ 64 | 4.43 | >=64 | 32.7 ± 2 | – | – | – | – | – |
| C(=C\c1c[nH]c2ccccc12)/c1cc(-c2ccccc2)cc(-c2ccccc2)[o+]1.F[B-](F)(F)F [Jc-49-1] | 8 | ≥ 64 | ≥ 64 | 16 | ≥ 64 | 8 | 16 | ≥ 64 | ≥ 64 | >=64 | ≥ 64 | 2.2 | >=64 | 0.17 ± 0.05 | – | – | – | – | – |
| CN[C@H](CC(C)C)C(=O)N[C@H]1C(=O)N[C@@H](CC(N)=O)C(=O)N[C@H]2C(=O)N[C@H]3C(=O)N[C@H](C(=O)N[C@H](C(=O)O)c4cc(O)cc(O)c4-c4cc3ccc4O)[C@H](O)c3ccc(c(Cl)c3)Oc3cc2cc(c3O[C@@H]2O[C@H](CO)[C@@H](O)[C@H](O)[C@H]2O[C@H]2C[C@](C)(N)[C@H](O)[C@H](C)O2)Oc2ccc(cc2Cl)[C@H]1O [Vancomycin] | – | – | – | – | – | – | – | – | – | – | – | – | – | – | >32 | – | – | – | – |
| CC1(C)S[C@@H]2[C@H](NC(=O)[C@H](N)c3ccccc3)C(=O)N2[C@H]1C(=O)O [ampicillin, reference compound] | – | – | – | – | – | – | – | – | – | – | – | – | – | – | – | significant bacterial clearance | all animals | – | – |
| COc1ccc2c(c1)[C@]13CCCC[C@@H]1[C@H](C2)N(C)CC3 [dextromethorphan, reference compound] | – | – | – | – | – | – | – | – | – | – | – | – | – | – | – | – | – | 31 | 40 |

— article PMC5077133, “Towards Development of Small Molecule Lipid II Inhibitors as Novel Antibiotics” (PLoS ONE, 2016)
